In PubChem BioAssay (NCI):
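Five concentrations, 48 hours, 96-well plates. The concentration for full growth arrest is given as TGI.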

What was measured:
Assay in all cases: NCI tumour cell line growth inhibition, 48 h
786-0 renal = test system: 786-0 renal
A549 NSCLC = test system: A549 NSCLC
ACHN renal = test system: ACHN renal
CAKI-1 renal = test system: CAKI-1 renal
CCRF-CEM leukemia = test system: CCRF-CEM leukemia
COLO 205 colon = test system: COLO 205 colon
DU-145 prostate = test system: DU-145 prostate
EKVX NSCLC = test system: EKVX NSCLC
HCC-2998 colon = test system: HCC-2998 colon
HCT-116 colon = test system: HCT-116 colon
HCT-15 colon = test system: HCT-15 colon
HOP-62 NSCLC = test system: HOP-62 NSCLC
HOP-92 NSCLC = test system: HOP-92 NSCLC
HS 578T breast = test system: HS 578T breast
HT29 colon = test system: HT29 colon
IGROV1 ovarian = test system: IGROV1 ovarian
K-562 leukemia = test system: K-562 leukemia
KM12 colon = test system: KM12 colon
LOX IMVI melanoma = test system: LOX IMVI melanoma
MCF7 breast = test system: MCF7 breast
MDA-MB-231 breast = test system: MDA-MB-231 breast
MDA-MB-435 = test system: MDA-MB-435
MDA-N = test system: MDA-N
MOLT-4 leukemia = test system: MOLT-4 leukemia
NCI-H226 lung = test system: NCI-H226 lung
NCI-H23 lung = test system: NCI-H23 lung
NCI-H460 lung = test system: NCI-H460 lung
NCI-H522 lung = test system: NCI-H522 lung
NCI/ADR-RES ovarian = test system: NCI/ADR-RES ovarian
OVCAR-3 ovarian = test system: OVCAR-3 ovarian
OVCAR-4 ovarian = test system: OVCAR-4 ovarian
OVCAR-5 ovarian = test system: OVCAR-5 ovarian
OVCAR-8 ovarian = test system: OVCAR-8 ovarian
PC-3 prostate = test system: PC-3 prostate
RPMI-8226 leukemia = test system: RPMI-8226 leukemia
RXF 393 renal = test system: RXF 393 renal
SF-268 CNS = test system: SF-268 CNS
SF-295 CNS = test system: SF-295 CNS
SF-539 CNS = test system: SF-539 CNS
SK-MEL-2 melanoma = test system: SK-MEL-2 melanoma
SK-MEL-28 melanoma = test system: SK-MEL-28 melanoma
SK-MEL-5 melanoma = test system: SK-MEL-5 melanoma
SK-OV-3 ovarian = test system: SK-OV-3 ovarian
SN12C renal = test system: SN12C renal
SNB-19 CNS = test system: SNB-19 CNS
SNB-75 CNS = test system: SNB-75 CNS
SR leukemia = test system: SR leukemia
SW-620 colon = test system: SW-620 colon
T-47D breast = test system: T-47D breast
TK-10 renal = test system: TK-10 renal
U251 CNS = test system: U251 CNS
UACC-257 melanoma = test system: UACC-257 melanoma
UACC-62 melanoma = test system: UACC-62 melanoma
UO-31 renal = test system: UO-31 renal
A498 renal = test system: A498 renal
HL-60(TB) leukemia = test system: HL-60(TB) leukemia
M14 melanoma = test system: M14 melanoma
MALME-3M melanoma = test system: MALME-3M melanoma

Compound: C=C1C(=O)O[C@H]2C/C(C)=C/CC[C@]3(C)CCC[C@](C)(CC[C@@H]12)O3
- TGI (786-0 renal): 16.4 µM
- TGI (A549 NSCLC): > 50 µM
- TGI (ACHN renal): 17.2 µM
- TGI (CAKI-1 renal): 25.7 µM
- TGI (CCRF-CEM leukemia): 3.38 µM
- TGI (COLO 205 colon): 14.8 µM
- TGI (DU-145 prostate): > 50 µM
- TGI (EKVX NSCLC): 22.7 µM
- TGI (HCC-2998 colon): 14.5 µM
- TGI (HCT-116 colon): 20.1 µM
- TGI (HCT-15 colon): > 50 µM
- TGI (HOP-62 NSCLC): > 50 µM
- TGI (HOP-92 NSCLC): 15.2 µM
- TGI (HS 578T breast): 48 µM
- TGI (HT29 colon): 15.2 µM
- TGI (IGROV1 ovarian): 14.5 µM
- TGI (K-562 leukemia): 18.8 µM
- TGI (KM12 colon): 17.4 µM
- TGI (LOX IMVI melanoma): > 50 µM
- TGI (MCF7 breast): 49.4 µM
- TGI (MDA-MB-231 breast): 46.2 µM
- TGI (MDA-MB-435): 15.6 µM
- TGI (MDA-N): > 50 µM
- TGI (MOLT-4 leukemia): 15.7 µM
- TGI (NCI-H226 lung): 27.7 µM
- TGI (NCI-H23 lung): 27.2 µM
- TGI (NCI-H460 lung): 16.9 µM
- TGI (NCI-H522 lung): 13 µM
- TGI (NCI/ADR-RES ovarian): 15.8 µM
- TGI (OVCAR-3 ovarian): 18.5 µM
- TGI (OVCAR-4 ovarian): 43.7 µM
- TGI (OVCAR-5 ovarian): > 50 µM
- TGI (OVCAR-8 ovarian): 15.2 µM
- TGI (PC-3 prostate): 41.5 µM
- TGI (RPMI-8226 leukemia): 20 µM
- TGI (RXF 393 renal): 18.4 µM
- TGI (SF-268 CNS): 16.3 µM
- TGI (SF-295 CNS): > 50 µM
- TGI (SF-539 CNS): 20.7 µM
- TGI (SK-MEL-2 melanoma): 17.9 µM
- TGI (SK-MEL-28 melanoma): 15.8 µM
- TGI (SK-MEL-5 melanoma): 13.8 µM
- TGI (SK-OV-3 ovarian): > 50 µM
- TGI (SN12C renal): 34.2 µM
- TGI (SNB-19 CNS): > 50 µM
- TGI (SNB-75 CNS): 43.6 µM
- TGI (SR leukemia): 22.5 µM
- TGI (SW-620 colon): 17.7 µM
- TGI (T-47D breast): 25.9 µM
- TGI (TK-10 renal): 18.4 µM
- TGI (U251 CNS): 17.7 µM
- TGI (UACC-257 melanoma): 21.7 µM
- TGI (UACC-62 melanoma): 24.4 µM
- TGI (UO-31 renal): 15.7 µM

Compound: COc1cccc2nc3ccccc3nc12
- TGI (786-0 renal): > 100 µM
- TGI (A498 renal): > 100 µM
- TGI (A549 NSCLC): > 100 µM
- TGI (ACHN renal): 63.4 µM
- TGI (CAKI-1 renal): > 100 µM
- TGI (CCRF-CEM leukemia): > 100 µM
- TGI (COLO 205 colon): > 100 µM
- TGI (DU-145 prostate): > 100 µM
- TGI (EKVX NSCLC): > 100 µM
- TGI (HCC-2998 colon): > 100 µM
- TGI (HCT-116 colon): > 100 µM
- TGI (HCT-15 colon): > 100 µM
- TGI (HL-60(TB) leukemia): > 100 µM
- TGI (HOP-62 NSCLC): > 100 µM
- TGI (HOP-92 NSCLC): 78.1 µM
- TGI (HS 578T breast): > 100 µM
- TGI (HT29 colon): > 100 µM
- TGI (K-562 leukemia): > 100 µM
- TGI (KM12 colon): > 100 µM
- TGI (LOX IMVI melanoma): > 100 µM
- TGI (M14 melanoma): > 100 µM
- TGI (MALME-3M melanoma): > 100 µM
- TGI (MCF7 breast): > 100 µM
- TGI (MDA-MB-231 breast): > 100 µM
- TGI (MDA-MB-435): > 100 µM
- TGI (MDA-N): > 100 µM
- TGI (MOLT-4 leukemia): > 100 µM
- TGI (NCI-H226 lung): > 100 µM
- TGI (NCI-H23 lung): > 100 µM
- TGI (NCI-H460 lung): > 100 µM
- TGI (NCI/ADR-RES ovarian): > 100 µM
- TGI (OVCAR-3 ovarian): > 100 µM
- TGI (OVCAR-5 ovarian): > 100 µM
- TGI (OVCAR-8 ovarian): 69.1 µM
- TGI (PC-3 prostate): > 100 µM
- TGI (RPMI-8226 leukemia): 69.1 µM
- TGI (RXF 393 renal): > 100 µM
- TGI (SF-268 CNS): > 100 µM
- TGI (SF-295 CNS): > 100 µM
- TGI (SF-539 CNS): > 100 µM
- TGI (SK-MEL-28 melanoma): > 100 µM
- TGI (SK-MEL-5 melanoma): > 100 µM
- TGI (SK-OV-3 ovarian): > 100 µM
- TGI (SN12C renal): > 100 µM
- TGI (SNB-19 CNS): > 100 µM
- TGI (SNB-75 CNS): > 100 µM
- TGI (SR leukemia): > 100 µM
- TGI (SW-620 colon): > 100 µM
- TGI (T-47D breast): > 100 µM
- TGI (TK-10 renal): > 100 µM
- TGI (U251 CNS): > 100 µM
- TGI (UACC-257 melanoma): > 100 µM
- TGI (UACC-62 melanoma): > 100 µM
- TGI (UO-31 renal): 72.3 µM
